Test results reported in the supplement of paper PMC13380429.

Columns and labels:
Conditions in all cases: 72 h
Caco-2 [1] = assay: drug sensitivity score (DSS) for viability; higher = more toxic; extreme values may be limits of the assay
Calu-3 [2] = assay: as above
Vero E6 [3] = assay: as above
HepG2 [4] = assay: as above
U2OS [5] = assay: as above
Caco-2 [6] = assay: cell viability relative to DMSO; higher = less toxic
Calu-3 [7] = assay: as above
Vero E6 [8] = assay: as above
HepG2 [9] = assay: as above
U2OS [10] = assay: as above
Caco-2 [11] = assay: relative viability EC50 (midpoint between 100% and the lowest measured viability); higher = less toxic
Calu-3 [12] = assay: as above
Vero E6 [13] = assay: as above
HepG2 [14] = assay: as above
U2OS [15] = assay: as above

Structure (SMILES) | drug sensitivity score (Caco-2 [1]) | drug sensitivity score (Calu-3 [2]) | drug sensitivity score (Vero E6 [3]) | drug sensitivity score (HepG2 [4]) | drug sensitivity score (U2OS [5]) | cell viability (Caco-2 [6]; 1 nM) | cell viability (Caco-2 [6]; 10 nM) | cell viability (Caco-2 [6]; 100 nM) | cell viability (Caco-2 [6]; 1000 nM) | cell viability (Caco-2 [6]; 10000 nM) | cell viability (Calu-3 [7]; 1 nM) | cell viability (Calu-3 [7]; 10 nM) | cell viability (Calu-3 [7]; 100 nM) | cell viability (Calu-3 [7]; 1000 nM) | cell viability (Calu-3 [7]; 10000 nM) | cell viability (Vero E6 [8]; 1 nM) | cell viability (Vero E6 [8]; 10 nM) | cell viability (Vero E6 [8]; 100 nM) | cell viability (Vero E6 [8]; 1000 nM) | cell viability (Vero E6 [8]; 10000 nM) | cell viability (HepG2 [9]; 1 nM) | cell viability (HepG2 [9]; 10 nM) | cell viability (HepG2 [9]; 100 nM) | cell viability (HepG2 [9]; 1000 nM) | cell viability (HepG2 [9]; 10000 nM) | cell viability (U2OS [10]; 1 nM) | cell viability (U2OS [10]; 10 nM) | cell viability (U2OS [10]; 100 nM) | cell viability (U2OS [10]; 1000 nM) | cell viability (U2OS [10]; 10000 nM) | relative viability EC50 (Caco-2 [11]) | relative viability EC50 (Calu-3 [12]) | relative viability EC50 (Vero E6 [13]) | relative viability EC50 (HepG2 [14]) | relative viability EC50 (U2OS [15])
CN(C)[C@@H]1C(O)=C(C(N)=O)C(=O)[C@@]2(O)C(O)=C3C(=O)c4c(O)ccc(Cl)c4[C@@H](O)[C@H]3C[C@@H]12 [demeclocycline] | 0 | 0 | 0 | 0 | 0 | 99.9% | 95.9% | 101% | 95.5% | 96.3% | 112% | 115% | 102% | 98.9% | 93.4% | 98.1% | 103% | 110% | 99.6% | 91% | 89.5% | 97.6% | 97.3% | 102% | 94.9% | 105% | 98% | 101% | 96.3% | 93.8% | > 10 µM | > 10 µM | > 10 µM | > 10 µM | > 10 µM
CC(=O)N[C@@H](CC(=O)O)C(=O)N[C@@H](CCC(=O)O)C(=O)O [spaglumic-acid] | 0 | 0 | 0 | 0 | 0 | 105% | 98.1% | 101% | 94.6% | 101% | 89.7% | 93.3% | 100% | 97.2% | 105% | 93.6% | 105% | 101% | 102% | 100% | 101% | 108% | 91.5% | 114% | 95.5% | 101% | 96.2% | 104% | 102% | 102% | > 10 µM | > 10 µM | > 10 µM | > 10 µM | > 10 µM
C[C@H](NC[C@H](O)CP(=O)(O)Cc1ccccc1)c1ccc(Cl)c(Cl)c1 | 0 | 0 | 0 | 0 | 0 | 104% | 100% | 95.9% | 99.5% | 89.8% | 102% | 107% | 95.3% | 100% | 106% | 99.4% | 96.8% | 98.1% | 94.8% | 98.1% | 96.9% | 92.4% | 94.8% | 80.1% | 95% | 96.5% | 101% | 94.6% | 97.9% | 94.3% | > 10 µM | > 10 µM | > 10 µM | > 10 µM | > 10 µM
CCc1ccc(/C=C/C(=O)Nc2ccc(C(C)=O)cc2)o1 [heclin] | 0 | 0.1 | 0 | 0.4 | 0 | 91.1% | 102% | 91.4% | 95.2% | 88.4% | 98.5% | 106% | 95% | 99.6% | 87.3% | 102% | 103% | 98.9% | 99.9% | 103% | 93.6% | 95.6% | 88.5% | 92.3% | 85.6% | 93.2% | 98.6% | 96.3% | 94.2% | 90.3% | > 10 µM | > 10 µM | > 10 µM | > 10 µM | > 10 µM
O=C(O)CCc1cc(I)c(Oc2ccc(O)cc2)c(I)c1 [diiodothyropropionic-acid] | 0 | 0 | 0.7 | 0 | 0 | 113% | 124% | 94.4% | 113% | 109% | 96.8% | 101% | 94.5% | 99.6% | 93.6% | 105% | 103% | 104% | 87.1% | 92.1% | 104% | 95% | 113% | 103% | 99.8% | 96.2% | 99.1% | 95.8% | 98.4% | 96.6% | > 10 µM | > 10 µM | > 10 µM | > 10 µM | > 10 µM
CCN1C[C@]2(COC(=O)c3ccccc3N3C(=O)C[C@H](C)C3=O)CC[C@H](OC)[C@@]34[C@@H]5C[C@H]6[C@H](OC)[C@@H]5[C@](O)(C[C@@H]6OC)[C@](O)([C@@H](OC)[C@H]23)[C@@H]14 [methyllycaconitine] | 0 | 0 | 0 | 0 | 0 | 108% | 96.1% | 103% | 97% | 98.1% | 97.3% | 102% | 90.3% | 91.1% | 98.6% | 104% | 102% | 101% | 102% | 97.8% | 96.3% | 102% | 99.4% | 95.2% | 101% | 97.1% | 94.5% | 95.8% | 96.3% | 94.7% | > 10 µM | > 10 µM | > 10 µM | > 10 µM | > 10 µM
C1=N/C2=N/c3ccc(OCCN4CCCC4)c(c3)COC/C=C/COCc3cccc(c3)C(=C1)N2 [pacritinib] | 6.1 | 3.8 | 5.9 | 6.7 | 7.1 | 88.9% | 95.2% | 94.6% | 87.7% | 26% | 104% | 96.5% | 95.6% | 102% | 27.8% | 96.3% | 94.9% | 94.7% | 94.7% | 7.2% | 94.2% | 102% | 89.4% | 92.1% | 0.8% | 90.3% | 91.6% | 101% | 89.7% | 1.5% | 1.9 µM | 3.34 µM | 2.71 µM | 2.51 µM | 2.3 µM
